Calls of active or inactive are those of the source.
Tests used:
HEK293 [1] = experiment: cells; assay type: functional, cell-based; details: Homo sapiens
[2] = HepG2 cell cytotoxicity, dose response, cytotoxicity control for Shn3 inhibitor project, CellTiter-Glo, cherry-picked (AID 624134); assay type: functional, cell-based
[3] = cytotoxicity toward NIH3T3 fibroblasts, dose response, counter-screen, cell-based, ATP luminescence, mouse fibroblasts (AID 2010); assay type: functional;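 also: cells exposed to compound for about 90 hours before reading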
HEK293 [4] = experiment: NOD2 signaling inhibitors in MDP-stimulated cells, cell-based, uHTS, luminescence (AID 2001); assay type: functional; details: Homo sapiens
cells [5] = experiment: cells
HEK293 [6] = experiment: NOD1 signaling inhibitors, primary screen, cell-based, luminescence, uHTS (AID 1578); assay type: functional; details: Homo sapiens
[7] = cytotoxicity in HEK-293T cells, dose response, cytotoxicity control for TCR NF-kB inhibitor project, luminescence, T-cell screen hits (AID 489026); assay type: functional, cell-based;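 also: cells exposed to compound about 14 hours before the viability readout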
[8] = control 3'UTR Renilla luciferase suppression, dose response, counter-screen for Shn3 inhibitor project, cell-based, Clone20-Shn3RL, cherry-picked (AID 624133); assay type: functional
[9] = Shn3 3'UTR reporter inhibitors, dose response, cell-based, Clone20 osteoblasts, firefly luciferase, cherry-picked (AID 624132); assay type: functional;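 also: firefly luciferase luminescence from reporter carrying the Shn3 3'UTR in osteoblasts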
[10] = target: COUP transcription factor 2 (Homo sapiens, UniProt P24468); experiment: Luminescence-based cell-based high throughput dose response assay to identify inhibitors of COUP-TFII (NR2F2).; assay type: functional;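 also: HEK293 cells transiently cotransfected with COUP-TFII expression vector and reporter; luciferase reporter luminescence driven by COUP-TFII from the pX2-168 reporter plasmid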
Sequence of COUP transcription factor 2 (P24468 whole entry): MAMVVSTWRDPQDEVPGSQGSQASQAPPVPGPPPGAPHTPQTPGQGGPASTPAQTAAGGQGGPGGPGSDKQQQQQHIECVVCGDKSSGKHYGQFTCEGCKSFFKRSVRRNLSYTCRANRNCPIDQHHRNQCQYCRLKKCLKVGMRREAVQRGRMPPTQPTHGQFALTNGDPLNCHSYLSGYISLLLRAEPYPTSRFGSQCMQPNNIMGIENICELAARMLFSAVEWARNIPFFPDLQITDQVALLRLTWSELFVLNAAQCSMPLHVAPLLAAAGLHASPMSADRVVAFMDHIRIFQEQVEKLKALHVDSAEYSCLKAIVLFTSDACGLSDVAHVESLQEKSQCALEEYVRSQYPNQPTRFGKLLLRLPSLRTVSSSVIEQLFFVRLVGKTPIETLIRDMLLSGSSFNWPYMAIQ

[11] = inhibitors of intracellular T. cruzi replication, confirmation, NIH3T3 host cells, beta-gal luminescence (AID 2044); assay type: functional, cell-based;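 also: intracellular parasites grown in NIH/3T3 mouse fibroblasts as host cells; luminescent beta-galactosidase reporter signal from transgenic T. cruzi replicating inside host cells; inhibitors lower the luminescence signal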
INS1 = experiment: beta cell apoptosis inhibitors, cytokine rescue, dose response, luminescence, retest (AID 449756); assay type: functional, cell-based; details: Rattus norvegicus;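 also: cell death triggered by IL-1 beta plus TNF-alpha plus IFN-gamma mixture; protective hits raise ATP signal compared with cytokine alone wells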
HEK293 [12] = experiment: cells; assay type: functional, cell-based; details: Homo sapiens; remark: listed apart in the source
[13] = target: Transitional endoplasmic reticulum ATPase (Homo sapiens, UniProt P55072, C522A); experiment: Luminescence counterscreen assay for p97 inhibitors: dose response biochemical high throughput screening assay to identify inhibitors of the C522A mutant p97 ATPase: synthesized compounds. [Related pubchem assays: 1481, 1517, 1551 ]
Sequence of Transitional endoplasmic reticulum ATPase (Homo sapiens, UniProt P55072, C522A) (P55072 2-806 C522A limits assumed): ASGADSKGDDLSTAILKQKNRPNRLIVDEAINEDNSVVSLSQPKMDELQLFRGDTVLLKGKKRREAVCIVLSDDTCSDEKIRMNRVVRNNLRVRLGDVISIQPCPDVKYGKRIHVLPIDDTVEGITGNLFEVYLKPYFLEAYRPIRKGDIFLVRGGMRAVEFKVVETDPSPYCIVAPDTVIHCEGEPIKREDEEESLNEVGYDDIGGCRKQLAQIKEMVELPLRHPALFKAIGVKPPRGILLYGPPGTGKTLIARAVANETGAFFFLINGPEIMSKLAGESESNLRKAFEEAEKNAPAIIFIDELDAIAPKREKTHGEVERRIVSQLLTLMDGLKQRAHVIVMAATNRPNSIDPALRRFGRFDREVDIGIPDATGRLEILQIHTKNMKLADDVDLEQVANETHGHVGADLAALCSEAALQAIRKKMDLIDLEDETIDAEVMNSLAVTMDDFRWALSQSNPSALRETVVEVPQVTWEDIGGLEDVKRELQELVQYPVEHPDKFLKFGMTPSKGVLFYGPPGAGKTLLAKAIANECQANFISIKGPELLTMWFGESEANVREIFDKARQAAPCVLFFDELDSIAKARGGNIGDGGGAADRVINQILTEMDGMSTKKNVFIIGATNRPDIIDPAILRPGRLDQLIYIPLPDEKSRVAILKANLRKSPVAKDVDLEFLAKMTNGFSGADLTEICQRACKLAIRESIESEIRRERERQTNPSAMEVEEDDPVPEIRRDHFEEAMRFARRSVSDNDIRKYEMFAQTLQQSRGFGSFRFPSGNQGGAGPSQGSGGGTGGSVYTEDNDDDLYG

[14] = target: Transitional endoplasmic reticulum ATPase (Homo sapiens, UniProt P55072); experiment: Luminescence dose response biochemical high throughput screening assay for inhibitors of the p97 ATPase: synthesized compounds. [Related pubchem assays: 1481, 1517 ]
Sequence of Transitional endoplasmic reticulum ATPase (Homo sapiens, UniProt P55072) (P55072 whole entry): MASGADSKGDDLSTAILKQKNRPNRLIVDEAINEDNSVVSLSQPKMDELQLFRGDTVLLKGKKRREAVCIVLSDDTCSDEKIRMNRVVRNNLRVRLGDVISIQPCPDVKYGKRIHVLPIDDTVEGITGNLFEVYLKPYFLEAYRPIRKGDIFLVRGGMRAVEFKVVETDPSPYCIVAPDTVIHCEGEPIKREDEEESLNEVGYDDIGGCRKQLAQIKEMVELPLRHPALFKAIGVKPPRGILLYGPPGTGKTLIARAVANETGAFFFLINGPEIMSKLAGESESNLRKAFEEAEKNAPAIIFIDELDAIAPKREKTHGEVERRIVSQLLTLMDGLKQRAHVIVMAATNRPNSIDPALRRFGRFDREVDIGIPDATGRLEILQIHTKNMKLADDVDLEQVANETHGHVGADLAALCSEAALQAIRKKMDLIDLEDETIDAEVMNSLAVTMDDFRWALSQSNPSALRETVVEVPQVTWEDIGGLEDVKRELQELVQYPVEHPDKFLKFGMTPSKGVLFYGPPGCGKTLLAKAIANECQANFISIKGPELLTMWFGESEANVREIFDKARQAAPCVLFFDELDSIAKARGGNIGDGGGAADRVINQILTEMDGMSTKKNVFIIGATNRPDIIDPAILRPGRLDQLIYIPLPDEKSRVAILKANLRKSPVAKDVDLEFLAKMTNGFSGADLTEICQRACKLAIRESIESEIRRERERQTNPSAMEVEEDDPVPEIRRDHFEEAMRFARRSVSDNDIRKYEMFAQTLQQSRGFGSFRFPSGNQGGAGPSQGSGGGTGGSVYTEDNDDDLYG

Bcl-2-like protein 10 = target: T1, Bcl-2-like protein 10 (Homo sapiens, UniProt Q9HD36); experiment: Biochemical TR3 FP assay of Bcl-B inhibitor potency, EC50 (AID 1243); assay type: functional
T1 sequence (Q9HD36 whole entry): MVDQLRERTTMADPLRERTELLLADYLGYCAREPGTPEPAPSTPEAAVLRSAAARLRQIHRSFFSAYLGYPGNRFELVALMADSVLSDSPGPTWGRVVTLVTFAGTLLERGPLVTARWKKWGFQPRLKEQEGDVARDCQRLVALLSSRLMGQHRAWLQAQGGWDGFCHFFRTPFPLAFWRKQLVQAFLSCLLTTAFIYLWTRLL

NS3 = NS3 (Hepatitis C virus, UniProt A3EZJ3); experiment: PubChem AID 2173; set-up: species or system Hepacivirus hominis
Sequence of NS3 (A3EZJ3 whole entry): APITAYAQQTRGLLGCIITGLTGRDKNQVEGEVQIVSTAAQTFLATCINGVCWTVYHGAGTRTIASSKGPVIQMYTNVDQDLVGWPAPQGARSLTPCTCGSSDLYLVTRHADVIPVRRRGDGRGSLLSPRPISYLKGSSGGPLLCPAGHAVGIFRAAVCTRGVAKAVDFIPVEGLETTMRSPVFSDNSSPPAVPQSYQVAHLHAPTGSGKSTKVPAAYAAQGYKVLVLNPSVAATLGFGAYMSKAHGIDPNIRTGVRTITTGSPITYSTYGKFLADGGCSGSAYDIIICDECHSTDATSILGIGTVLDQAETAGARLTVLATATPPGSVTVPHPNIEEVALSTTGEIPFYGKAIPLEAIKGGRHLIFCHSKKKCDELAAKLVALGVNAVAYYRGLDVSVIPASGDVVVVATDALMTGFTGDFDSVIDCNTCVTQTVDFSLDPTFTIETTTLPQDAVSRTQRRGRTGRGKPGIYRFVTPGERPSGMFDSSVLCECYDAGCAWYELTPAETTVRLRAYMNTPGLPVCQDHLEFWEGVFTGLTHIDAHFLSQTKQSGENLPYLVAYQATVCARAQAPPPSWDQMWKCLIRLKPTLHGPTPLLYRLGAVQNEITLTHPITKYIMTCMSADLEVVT

Genome polyprotein = Genome polyprotein (dengue virus type 2, UniProt P29990); experiment: Dengue-2 NS5 methyltransferase inhibitors, primary screen, biochemical, confirmation dose response (AID 588689); assay type: functional
[15] = cytotoxicity in KRAS-transformed pancreatic duct cells, primary screen, cell-based, fluorescence, HTS (AID 431); assay type: functional; details: Homo sapiens;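 also: cell line used: HPDE-C7K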
[16] = microbe, parasite or virus in culture; assay type: functional; details: Mycobacterium tuberculosis
[17] = cytotoxicity in HPDE-C7 cells, cell-based, fluorescence, HTS (AID 430); assay type: functional; details: Homo sapiens
cells [18] = assay type: functional, cell-based
[19] = Luminescence-based dose response cell-based high throughput screening assay for cytotoxic compounds using the IEC-6 intestinal epithelial cell line. [Related pubchem assays: 1858 (Summary AID.), 1825 (Counterscreen.), 1907 (Confirmation screen.)]; assay type: functional
cells [20] = assay type: functional, cell-based; remark: listed apart in the source
Albumin = Albumin (Bos taurus, UniProt P02769); experiment: Counterscreen for inhibitors of T-cell receptor (TCR)-CD3 interaction: Fluorescence-based biochemical high throughput dose response assay to identify inhibitors of T-cell receptor (TCR)-CD3 interaction using a TAMRA-labeled BSA probe.; assay type: functional
Sequence of Albumin (P02769 whole entry): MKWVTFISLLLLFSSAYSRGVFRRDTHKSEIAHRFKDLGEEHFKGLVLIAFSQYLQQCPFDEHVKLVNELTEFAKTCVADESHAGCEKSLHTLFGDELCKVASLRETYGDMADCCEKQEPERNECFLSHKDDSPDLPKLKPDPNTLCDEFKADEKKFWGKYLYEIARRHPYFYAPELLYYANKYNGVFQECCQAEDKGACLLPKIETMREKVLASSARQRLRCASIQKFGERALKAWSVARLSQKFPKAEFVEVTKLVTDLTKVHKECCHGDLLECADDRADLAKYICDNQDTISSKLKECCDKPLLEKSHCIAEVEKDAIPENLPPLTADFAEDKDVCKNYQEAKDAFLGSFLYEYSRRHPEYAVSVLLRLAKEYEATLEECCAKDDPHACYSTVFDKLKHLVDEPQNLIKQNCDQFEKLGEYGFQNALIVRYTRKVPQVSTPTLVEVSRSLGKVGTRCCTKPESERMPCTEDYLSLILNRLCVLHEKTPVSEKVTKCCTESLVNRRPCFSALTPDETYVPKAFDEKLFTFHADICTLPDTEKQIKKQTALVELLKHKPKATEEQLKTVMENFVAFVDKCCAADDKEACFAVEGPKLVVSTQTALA

[21] = human group III sPLA2 inhibitors, dose response, biochemical, QFRET, IC50 (AID 743457);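 also: green fluorescence rise as the enzyme cleaves BODIPY PC-A2 in liposomes; potency for inhibition of the enzyme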
[22] = target: Endoplasmic reticulum aminopeptidase 1 (Homo sapiens, UniProt Q9NZ08); experiment: ERAP1 aminopeptidase inhibitors, dose response, biochemical, cherry-pick, set 2, plate reader (AID 743314)
Sequence of Endoplasmic reticulum aminopeptidase 1 (Q9NZ08 whole entry): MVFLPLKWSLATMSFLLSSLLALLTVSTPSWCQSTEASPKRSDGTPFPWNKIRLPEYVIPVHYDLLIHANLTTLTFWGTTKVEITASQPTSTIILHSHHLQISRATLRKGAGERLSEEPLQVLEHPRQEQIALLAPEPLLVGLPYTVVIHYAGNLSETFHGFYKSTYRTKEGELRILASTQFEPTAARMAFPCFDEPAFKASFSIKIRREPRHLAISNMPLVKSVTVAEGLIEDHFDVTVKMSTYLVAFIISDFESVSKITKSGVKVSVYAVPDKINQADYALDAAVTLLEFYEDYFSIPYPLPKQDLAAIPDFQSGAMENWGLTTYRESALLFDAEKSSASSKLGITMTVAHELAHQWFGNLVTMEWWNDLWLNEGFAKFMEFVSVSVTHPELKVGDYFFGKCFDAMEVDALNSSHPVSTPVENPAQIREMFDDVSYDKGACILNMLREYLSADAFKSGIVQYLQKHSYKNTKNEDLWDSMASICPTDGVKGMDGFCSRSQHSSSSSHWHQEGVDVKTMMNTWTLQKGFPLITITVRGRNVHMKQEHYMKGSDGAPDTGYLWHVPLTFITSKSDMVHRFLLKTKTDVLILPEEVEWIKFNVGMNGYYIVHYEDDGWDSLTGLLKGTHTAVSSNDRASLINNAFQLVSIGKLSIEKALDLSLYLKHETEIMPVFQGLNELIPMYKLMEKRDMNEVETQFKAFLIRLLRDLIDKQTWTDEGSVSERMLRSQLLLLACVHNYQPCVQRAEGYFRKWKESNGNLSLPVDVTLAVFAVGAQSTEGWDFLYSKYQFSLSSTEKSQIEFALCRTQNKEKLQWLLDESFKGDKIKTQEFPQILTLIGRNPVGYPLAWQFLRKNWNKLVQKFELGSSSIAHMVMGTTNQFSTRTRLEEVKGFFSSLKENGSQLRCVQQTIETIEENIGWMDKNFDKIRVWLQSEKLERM

Paired box protein Pax-8 = Paired box protein Pax-8 (Homo sapiens, UniProt Q06710); experiment: inhibitors of PAX8-driven TPO luciferase reporter, dose response, RMG-I cells, cherry-pick (AID 687027); assay type: functional, cell-based;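 also: luciferase reporter driven by Pax8 target thyroperoxidase promoter measured by SteadyGlo luminescence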
Sequence of Paired box protein Pax-8 (Q06710 whole entry): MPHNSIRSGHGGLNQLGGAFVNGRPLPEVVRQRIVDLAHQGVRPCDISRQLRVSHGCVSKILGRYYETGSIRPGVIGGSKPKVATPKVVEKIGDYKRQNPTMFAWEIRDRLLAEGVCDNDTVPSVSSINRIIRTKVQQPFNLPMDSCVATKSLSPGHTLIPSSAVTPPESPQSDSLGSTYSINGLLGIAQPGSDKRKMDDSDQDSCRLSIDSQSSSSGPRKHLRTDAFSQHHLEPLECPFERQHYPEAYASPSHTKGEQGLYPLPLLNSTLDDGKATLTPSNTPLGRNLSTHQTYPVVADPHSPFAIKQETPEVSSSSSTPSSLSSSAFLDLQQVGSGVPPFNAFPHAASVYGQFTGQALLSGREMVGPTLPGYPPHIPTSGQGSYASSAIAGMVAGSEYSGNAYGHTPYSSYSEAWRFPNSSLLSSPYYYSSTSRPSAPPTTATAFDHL

[23] = A549 cell cytotoxicity, dose response, CellTiter-Glo luminescence, dry powder, set 17 (AID 1117284); assay type: functional, cell-based
[24] = cytotoxicity in OVCAR8 ovarian cancer cells, dose response, PAX8 project, cell-based, plate reader, dry powder samples (AID 743197); assay type: functional; details: OVCAR-8

With `COc1ccc(C2=Nn3c([n+](C)c4ccccc43)SC2)cc1` as the compound, how does the IC50 (HEK293 [1]) read?
The IC50 was > 20 µM (inactive).

And the AC50 [2]?
Its AC50 is > 70 µM (inactive).

What about the EC50 [3] of the same compound?
The EC50 was > 60 µM (not active).

What about the IC50 (HEK293 [4]) of the same compound?
Its IC50 is 13 µM (inactive).

What about the EC50 (cells [5]) of the same compound?
The EC50 was 0.087 µM (active).

What about the EC50 (HEK293 [6]) of the same compound?
Its EC50 is 11.1 µM (active).

And the IC50 [7]?
The IC50 was > 80 µM (inactive).

What about the AC50 [8] of the same compound?
Its AC50 is 3.2 µM (active).

And the AC50 [9]?
The AC50 was 1.16 µM (active).

What about the IC50 [10] of the same compound?
The IC50 was 5.66 µM (active).

And the EC50 [11]?
Its EC50 is < 0.1 µM (active).

And the AC50 (INS1)?
Its AC50 is 1.54 µM (active).

And the IC50 (HEK293 [12])?
Its IC50 is 12.2 µM (active).

With `CCOC(=O)/C(C#N)=C/c1ccc(F)cc1[N+](=O)[O-]` as the compound, how does the IC50 [13] read?
The IC50 was > 50 µM (not active).

And the IC50 [14]?
The IC50 was > 50 µM (not active).

Which results are given for `Cc1cc(-c2csc(Nc3ccc(C#N)cc3)n2)c(C)n1CCc1ccccc1`?
IC50 [13]: > 50 µM (not active); IC50 [14]: > 50 µM (not active)

For `Cc1ccc(Cl)cc1S(=O)(=O)N1CCC(C(=O)NC2CCN(Cc3ccccc3)CC2)CC1`, which IC50 [10] is on record?
Its IC50 is 12 µM (inactive).

For `COc1cc(N)ccc1-n1c(C)ccc1C`, which EC50 (Bcl-2-like protein 10) is on record?
The EC50 was 32.9 µM (active).

Which results are given for `Cc1cc(N2C(=O)C(O)=C(C(=O)c3ccco3)C2c2cccc(Oc3ccccc3)c2)no1` (configuration not stated)?
IC50 (NS3): 2.64 µM (active); IC50 (Genome polyprotein): 64.6 µM (active)

Which results are given for `Cc1oc(C(=O)Nc2ccc(O)cc2)cc1COc1ccccc1`?
EC50 [15]: 13.9 µM (active); CC50 [16]: > 40 µM (active); EC50 [17]: 16.6 µM (active)

Which EC50 (Bcl-2-like protein 10) does the source give for `CC1=C(C#N)c2nc(N)c(C#N)c(C)c2/C1=C/c1ccc(-c2ccc(C(=O)O)c(Cl)c2)o1` here?
Its EC50 is 1.65 µM (active).

Which EC50 (cells [18]) does the source give for `C/C(=N\NC(=O)c1nnn(-c2nonc2N)c1-c1ccccc1)c1ccccc1O` here?
The EC50 was 113 µM (active).

And the EC50 [3]?
The EC50 was 3.76 µM (active).

What about the IC50 [19] of the same compound?
Its IC50 is 1.19 µM (active).

And the EC50 (cells [20])?
Its EC50 is 58.5 µM (active).

And the IC50 (Albumin)?
Its IC50 is > 94.1 µM (inactive).

And the EC50 [11]?
Its EC50 is 0.617 µM (active).

What about the AC50 (INS1) of the same compound?
Its AC50 is 0.353 µM (active).

And the IC50 [21]?
Its IC50 is > 122 µM (inactive).

Which AC50 [22] does the source give for `CCCNC(=O)N(C)C[C@@H]1Oc2ncc(-c3ccncc3)cc2C(=O)N([C@H](C)CO)C[C@@H]1C` here?
Its AC50 is 16.9 µM (active).

With `C[C@@H]1CN([C@@H](C)CO)S(=O)(=O)c2ccc(C#C[C@@H](C)O)cc2O[C@@H]1CN(C)Cc1ccc(-c2ccccc2)cc1` as the compound, how does the AC50 (Paired box protein Pax-8) read?
Its AC50 is 12.3 µM (active).

And the AC50 [23]?
Its AC50 is > 52 µM (inactive).

And the AC50 [24]?
The AC50 was > 70 µM (inactive).

— ChEMBL document CHEMBL1201862, “PubChem BioAssay data set” (2004)
